Drawing on ChEMBL document CHEMBL2074393, “Impact of Mrp2 on the biliary excretion and intestinal absorption of furosemide, probenecid, and methotrexate using Eisai hyperbilirubinemic rats” (Pharm Res, 2003), this text covers Activity for two molecules.

The target in series [1] is T1, ATP-binding cassette sub-family C member 2 (Rattus norvegicus, UniProt Q63120). Description: TP_TRANSPORTER: In vivo biliary excretion in vivo, biliary excretion of SDR and EHBR rat. It counts as functional, organism-based, Bile.
T1 sequence (Q63120 whole entry): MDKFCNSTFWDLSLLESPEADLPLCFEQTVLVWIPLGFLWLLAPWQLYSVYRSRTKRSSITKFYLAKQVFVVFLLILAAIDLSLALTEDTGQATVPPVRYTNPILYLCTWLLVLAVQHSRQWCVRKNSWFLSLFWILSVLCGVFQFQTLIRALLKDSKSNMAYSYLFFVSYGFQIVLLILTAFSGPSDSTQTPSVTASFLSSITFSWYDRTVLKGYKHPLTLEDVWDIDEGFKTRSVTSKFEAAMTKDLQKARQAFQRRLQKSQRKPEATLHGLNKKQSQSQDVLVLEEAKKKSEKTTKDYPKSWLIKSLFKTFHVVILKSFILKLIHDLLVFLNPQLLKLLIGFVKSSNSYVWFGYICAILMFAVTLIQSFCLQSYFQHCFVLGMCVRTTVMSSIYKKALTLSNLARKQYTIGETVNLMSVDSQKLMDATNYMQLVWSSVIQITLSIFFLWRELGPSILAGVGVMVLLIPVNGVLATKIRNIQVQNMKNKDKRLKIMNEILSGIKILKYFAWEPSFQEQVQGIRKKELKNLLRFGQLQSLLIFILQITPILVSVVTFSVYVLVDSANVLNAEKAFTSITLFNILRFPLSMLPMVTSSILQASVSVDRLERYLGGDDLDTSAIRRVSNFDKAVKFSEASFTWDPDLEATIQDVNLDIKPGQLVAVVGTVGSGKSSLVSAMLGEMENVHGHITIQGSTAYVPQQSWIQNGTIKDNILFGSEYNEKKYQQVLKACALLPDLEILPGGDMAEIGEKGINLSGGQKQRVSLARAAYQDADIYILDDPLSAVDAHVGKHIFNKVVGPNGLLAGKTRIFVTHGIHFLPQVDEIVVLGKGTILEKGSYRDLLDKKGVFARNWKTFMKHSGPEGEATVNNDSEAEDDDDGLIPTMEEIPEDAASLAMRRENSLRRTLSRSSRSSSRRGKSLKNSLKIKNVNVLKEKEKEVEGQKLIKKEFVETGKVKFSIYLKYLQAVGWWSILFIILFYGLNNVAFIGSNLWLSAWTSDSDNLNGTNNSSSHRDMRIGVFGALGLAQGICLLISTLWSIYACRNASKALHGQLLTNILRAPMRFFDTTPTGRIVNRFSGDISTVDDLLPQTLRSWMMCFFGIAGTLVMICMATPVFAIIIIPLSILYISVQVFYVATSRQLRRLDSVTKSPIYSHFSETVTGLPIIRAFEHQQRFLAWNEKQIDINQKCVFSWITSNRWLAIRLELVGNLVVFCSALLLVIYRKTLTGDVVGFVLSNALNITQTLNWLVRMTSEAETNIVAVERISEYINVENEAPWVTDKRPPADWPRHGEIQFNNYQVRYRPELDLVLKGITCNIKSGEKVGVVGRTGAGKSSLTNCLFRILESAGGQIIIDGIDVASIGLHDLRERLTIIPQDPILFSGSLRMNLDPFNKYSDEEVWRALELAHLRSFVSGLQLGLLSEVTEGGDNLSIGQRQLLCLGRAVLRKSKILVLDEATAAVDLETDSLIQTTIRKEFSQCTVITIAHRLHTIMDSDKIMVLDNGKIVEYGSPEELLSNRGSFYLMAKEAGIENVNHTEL
Series [2] addresses T1, ATP-binding cassette sub-family C member 2. The series is described as follows: TP_TRANSPORTER: In vivo biliary excretion of SDR rat. It counts as functional, organism-based, Sprague-Dawley, Bile.

As to `CN(Cc1cnc2nc(N)nc(N)c2n1)c1ccc(C(=O)N[C@@H](CCC(=O)O)C(=O)O)cc1` [METHOTREXATE], the Activity result in series [1] and in series [2] was “substrate []” each time.

In the case of `CCCN(CCC)S(=O)(=O)c1ccc(C(=O)O)cc1` [PROBENECID], the Activity entry in series [1] and in series [2] was “substrate []” throughout.
